Measurements published in US10131659B2, “Iodonium analogs as inhibitors of NADPH oxidases and other flavin dehydrogenases; formulations thereof; and uses thereof” (priority 2014, dated 2018).
Like-named read-outs stand apart in the source and are kept apart here.

Key:
[1] = test system: HT-29 human colon cancer cells; experiment: Growth inhibition of HT-29 cells by MTT assay; assay type: cell-based; settings: for IC50: read-out: IC50, HT-29 human colon cancer cell growth
Experimental: The compounds were analyzed for growth inhibition of HT-29 human colon cancer cells by MTT assay: 48 hr, drug exposures over several orders of concentration. The MTT assay was performed as described in Wu et al J. Immunology 190: 1859-1872, 2013.

[2] = test system: ROS production in HT-29 human colon cancer cells; experiment: ROS production in HT-29 cells (chemiluminescence / DCF analytical cytometry); assay type: cell-based
NOX1/A1/O1 = molecular target: T1, NOX1/A1/O1 (Homo sapiens, UniProt Q9Y5S8); experiment: NOX1-dependent ROS production, luminescence assay for O2.- in HEK293 cells expressing the NOX1 complex; assay type: cell-based; settings: for IC50 / IC50 toward NOX1: exposure for 30 min
T1 construct: expressed in transfected cells; host or cells: HEK293

NOX2 = molecular target: T2, NOX2 (Homo sapiens, UniProt P04839); experiment: NOX2-dependent ROS production, luminescence assay for O2.- in differentiated HL-60 cells; assay type: cell-based; settings: exposure for 30 min
T2 construct: fully differentiated HL-60 cells expressing active NOX2; endogenous in cells; host or cells: differentiated HL-60

NOX4 = molecular target: T3, NOX4 (Homo sapiens, UniProt Q9NPH5); experiment: NOX4-dependent H2O2 production, Amplex Red assay in reconstituted HEK293 cells; assay type: cell-based; settings: for IC50 / IC50 toward NOX4: exposure for 30 min
T3 construct: expressed in transfected cells; host or cells: HEK293
T3 sequence (Q9NPH5 1-578): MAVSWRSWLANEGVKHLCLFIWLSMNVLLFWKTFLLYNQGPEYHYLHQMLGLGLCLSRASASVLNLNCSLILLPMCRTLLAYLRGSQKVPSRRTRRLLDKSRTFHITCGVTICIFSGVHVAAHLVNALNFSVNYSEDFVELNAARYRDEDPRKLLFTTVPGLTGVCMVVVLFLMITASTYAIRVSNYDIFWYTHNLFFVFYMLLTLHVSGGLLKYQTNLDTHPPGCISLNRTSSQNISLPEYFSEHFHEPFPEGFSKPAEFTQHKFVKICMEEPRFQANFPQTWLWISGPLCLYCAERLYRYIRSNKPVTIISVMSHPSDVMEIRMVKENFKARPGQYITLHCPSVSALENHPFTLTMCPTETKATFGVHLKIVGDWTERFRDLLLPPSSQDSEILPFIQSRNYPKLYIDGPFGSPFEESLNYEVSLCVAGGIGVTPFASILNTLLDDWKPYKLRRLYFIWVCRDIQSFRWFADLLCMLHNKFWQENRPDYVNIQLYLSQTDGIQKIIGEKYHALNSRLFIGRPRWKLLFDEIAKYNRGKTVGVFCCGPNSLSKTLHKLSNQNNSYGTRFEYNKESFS
T3 sequence (P13498 2-195 partner limits assumed): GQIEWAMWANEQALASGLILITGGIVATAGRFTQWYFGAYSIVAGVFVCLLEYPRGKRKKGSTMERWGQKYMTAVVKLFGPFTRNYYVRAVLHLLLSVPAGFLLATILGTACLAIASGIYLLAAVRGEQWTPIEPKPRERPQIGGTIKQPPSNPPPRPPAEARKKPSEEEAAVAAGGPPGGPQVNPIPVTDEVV
Experimental: (§1) H2O2 was measured by Amplex Red assay to determine NOX4 or Duox2 activity in fully reconstituted HEK293 cells. The method conducted was similar to the approach disclosed in Jaquet et al in Brit J. Pharmacology 164: 507-520, 2011 using somewhat different cell models for the NOX isoforms and we studied Duox2 in our own cell model.

NOX5 = molecular target: T4, NOX5 (Homo sapiens, UniProt Q96PH1); experiment: NOX5-dependent ROS production, luminescence assay for O2.- in UACC257 melanoma cells; assay type: cell-based; settings: exposure for 30 min
T4 sequence (Q96PH1 1-765): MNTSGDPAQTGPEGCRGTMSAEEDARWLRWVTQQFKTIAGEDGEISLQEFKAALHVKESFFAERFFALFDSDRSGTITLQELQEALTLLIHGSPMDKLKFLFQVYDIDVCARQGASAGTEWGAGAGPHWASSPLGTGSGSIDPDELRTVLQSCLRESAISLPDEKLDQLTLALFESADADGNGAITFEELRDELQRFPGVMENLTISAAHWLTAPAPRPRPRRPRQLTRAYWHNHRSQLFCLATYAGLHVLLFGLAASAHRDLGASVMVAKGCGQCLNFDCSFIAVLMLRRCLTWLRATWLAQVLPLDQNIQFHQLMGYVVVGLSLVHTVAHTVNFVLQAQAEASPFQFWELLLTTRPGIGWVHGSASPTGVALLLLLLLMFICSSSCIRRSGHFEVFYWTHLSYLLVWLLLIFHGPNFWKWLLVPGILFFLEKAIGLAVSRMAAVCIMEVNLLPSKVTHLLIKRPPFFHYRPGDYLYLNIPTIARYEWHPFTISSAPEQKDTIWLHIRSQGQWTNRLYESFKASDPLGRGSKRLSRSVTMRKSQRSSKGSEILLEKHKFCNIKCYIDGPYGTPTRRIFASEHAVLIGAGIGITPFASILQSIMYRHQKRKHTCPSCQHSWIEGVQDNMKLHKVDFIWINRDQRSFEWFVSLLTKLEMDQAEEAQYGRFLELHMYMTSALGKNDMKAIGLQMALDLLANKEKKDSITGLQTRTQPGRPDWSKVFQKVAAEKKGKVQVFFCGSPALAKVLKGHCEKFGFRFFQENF

DUOX2/A2 = DUOX2/A2 (Homo sapiens, UniProt Q9NRD8); experiment: DUOX2-dependent H2O2 production, Amplex Red assay in reconstituted HEK293 cells; assay type: cell-based
Sequence of DUOX2/A2 (Q9NRD8 26-1548): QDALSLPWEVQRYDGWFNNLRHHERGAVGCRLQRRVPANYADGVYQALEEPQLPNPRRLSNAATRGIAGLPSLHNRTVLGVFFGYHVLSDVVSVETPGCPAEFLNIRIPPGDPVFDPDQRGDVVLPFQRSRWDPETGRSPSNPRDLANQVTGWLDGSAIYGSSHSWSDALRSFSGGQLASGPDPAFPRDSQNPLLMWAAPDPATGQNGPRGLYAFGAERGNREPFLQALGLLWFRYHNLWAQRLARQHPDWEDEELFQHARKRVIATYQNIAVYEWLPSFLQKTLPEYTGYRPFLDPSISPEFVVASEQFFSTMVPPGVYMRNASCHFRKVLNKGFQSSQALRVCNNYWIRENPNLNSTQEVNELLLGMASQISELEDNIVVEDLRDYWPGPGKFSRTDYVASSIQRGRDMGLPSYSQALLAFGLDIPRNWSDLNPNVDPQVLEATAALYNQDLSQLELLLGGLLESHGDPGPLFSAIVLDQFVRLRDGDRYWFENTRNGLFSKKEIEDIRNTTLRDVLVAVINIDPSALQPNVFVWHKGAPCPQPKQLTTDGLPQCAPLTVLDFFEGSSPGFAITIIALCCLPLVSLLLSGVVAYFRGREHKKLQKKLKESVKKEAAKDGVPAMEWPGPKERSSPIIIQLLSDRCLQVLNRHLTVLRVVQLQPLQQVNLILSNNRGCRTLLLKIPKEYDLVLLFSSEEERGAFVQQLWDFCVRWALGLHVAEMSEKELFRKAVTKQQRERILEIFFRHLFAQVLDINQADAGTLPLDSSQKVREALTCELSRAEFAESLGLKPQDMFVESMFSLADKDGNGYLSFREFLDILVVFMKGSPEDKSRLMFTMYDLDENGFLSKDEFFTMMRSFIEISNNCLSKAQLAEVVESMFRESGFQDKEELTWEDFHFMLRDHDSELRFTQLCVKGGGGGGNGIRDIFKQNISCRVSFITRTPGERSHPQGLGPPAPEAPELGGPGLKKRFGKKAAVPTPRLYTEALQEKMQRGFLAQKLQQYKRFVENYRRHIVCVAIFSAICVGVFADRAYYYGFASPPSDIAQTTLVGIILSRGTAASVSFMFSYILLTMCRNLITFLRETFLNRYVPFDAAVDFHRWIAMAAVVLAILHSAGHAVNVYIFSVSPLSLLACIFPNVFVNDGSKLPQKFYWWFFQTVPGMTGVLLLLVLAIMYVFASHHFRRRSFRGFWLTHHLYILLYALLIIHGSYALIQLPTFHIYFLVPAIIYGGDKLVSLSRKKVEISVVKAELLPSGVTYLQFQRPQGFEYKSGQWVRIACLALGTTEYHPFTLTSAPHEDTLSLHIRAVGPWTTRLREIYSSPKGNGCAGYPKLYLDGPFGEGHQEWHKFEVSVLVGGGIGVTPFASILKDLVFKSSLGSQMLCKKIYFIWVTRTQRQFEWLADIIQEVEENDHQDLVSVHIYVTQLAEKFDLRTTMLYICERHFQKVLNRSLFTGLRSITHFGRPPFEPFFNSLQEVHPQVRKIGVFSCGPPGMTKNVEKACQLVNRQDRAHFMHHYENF
Sequence of DUOX2/A2 (Q1HG44 whole entry partner): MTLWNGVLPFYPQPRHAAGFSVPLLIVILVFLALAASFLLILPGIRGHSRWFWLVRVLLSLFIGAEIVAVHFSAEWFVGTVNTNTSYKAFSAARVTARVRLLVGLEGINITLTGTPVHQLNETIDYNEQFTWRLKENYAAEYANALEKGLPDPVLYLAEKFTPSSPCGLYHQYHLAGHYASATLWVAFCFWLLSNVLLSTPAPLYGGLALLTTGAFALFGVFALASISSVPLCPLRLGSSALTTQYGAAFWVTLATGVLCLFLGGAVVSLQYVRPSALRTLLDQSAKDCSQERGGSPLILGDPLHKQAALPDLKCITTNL
Experimental: as §1

[3] = test system: HT-29 human colon cancer cells; experiment: Clonogenic assay, HT-29 cells; assay type: cell-based
Experimental: Several iodonium analog compounds were analyzed for inhibition of HT-29 growth using a clonogenic assay performed as described in Doroshow et al Biochem. Biophys. Res. Commun. 135: 330-335, 1986.

[4] = test system: HT-29 human colon cancer cells; experiment: HT-29 cell cycle progression; assay type: cell-based; settings: for G1 (%) / G2 (%) / S phase (%): 24 hours
Experimental: Several iodonium analog compounds were analyzed for effect on HT-29 cell cycle progression.

[5] = test system: NOX1, NOX2, NOX4, NOX5, and DUOX2; experiment: Screening for NADPH oxidase isoform specificity in cellular models (all isoforms); assay type: cell-based, human
Experimental: as §1, with “To evaluate compound specificity, a luminescence assay for O2.^− was used with HEK293 cells expressing all components of the NOX1 complex; fully differentiated HL-60 cells expressing active NOX2; and UACC257 melanoma cells that exclusively express active NOX5. H2O2” for “H2O2”

NOX1 mRNA expression = experiment: NOX1 expression in HT-29 cells by quantitative RT-PCR; assay type: cell-based; settings: HT-29 human colon cancer cells
[6] = 3-5 independent experiments, read-out: IC50 ± SE, NOX1/A1/O1 HEK 293
[7] = 3-5 independent experiments, read-out: IC50 ± SE, NOX2 HL-60
[8] = 3-5 independent experiments, read-out: IC50 ± SE, NOX4 HEK293
[9] = 3-5 independent experiments, read-out: IC50 ± SE, NOX5 UACC-257
[10] = 3-5 independent experiments, read-out: IC50 ± SE, DUOX2/A2 HEK 293
[11] = Homo sapiens, HT-29, 2 h, read-out: IC50 (±SE) clonogenic survival, 2 hrs drug exposure, 2 hrs exposure
[12] = Homo sapiens, HT-29, 6 h, read-out: IC50 (±SE) clonogenic survival, 6 hrs drug exposure, 6 hrs exposure
[13] = Homo sapiens, HT-29, 240 h, read-out: IC50 clonogenic survival, 10 days drug exposure, 10 days exposure

SMILES | IC50 ([1]; Homo sapiens, HT-29, 48 h) [nM] | IC50 (NOX1/A1/O1; [6]) [nM] | IC50 toward NOX1 (NOX1/A1/O1) | IC50 (NOX2; [7]) [nM] | IC50 toward NOX2 (NOX2) | IC50 (NOX4; [8]) [nM] | IC50 toward NOX4 (NOX4) | IC50 (NOX5; [9]) [nM] | IC50 toward NOX5 (NOX5) | IC50 (DUOX2/A2; [10]) [nM] | IC50 [3, 12] [nM] | other results
O=[N+]([O-])c1ccc2c(c1)[I+]c1cc([N+](=O)[O-])ccc1-2.[Br-] [Compound 15, Dibenziodolium, 3,7-dinitro-, bromide] | 202 | 357 ± 268 | low nM | 310 ± 53 | low nM | 139 ± 143 | low nM | 208 ± 129 | low nM | 225 ± 24 | 116 ± 108 | ROS production in HT-29 cells ([2]; treatment for 24 hr with 100 nM): significantly decreased; potency for inhibition of DUOX2 compared with parent compound (DPI) (DUOX2/A2): at least a log more potent; cytotoxic or cytostatic character [3]: cytotoxic; exposure required to inhibit growth / cell reproduction [3]: only a short exposure at nM concentrations; IC50 [3, 11]: 180 ± 157 nM; IC50 [3, 13]: < 10 nM; effect on cell cycle progression [4]: major block in cell cycle progression in S and G2 phases; G1 (%) ([4]; 250 nM): 23.9%; G2 (%) ([4]; 250 nM): 47.4%; S phase (%) ([4]; 250 nM): 28.7%; G1 (%) ([4]; 500 nM): 16.6%; G2 (%) ([4]; 500 nM): 25.2%; S phase (%) ([4]; 500 nM): 58.2%
COC(=O)c1ccc2c(c1)[I+]c1ccccc1-2.Cc1ccc(S(=O)(=O)[O-])cc1 [Compound 21, Dibenz[b,d]iodolium, 3-(methoxycarbonyl)-, salt with 4-methyl-benzenesulfonic acid (1:1)] | – | 249 ± 116 | low nM | 71 ± 15 | low nM | 127 ± 110 | low nM | 55 ± 20 | low nM | 1990 ± 1690 | – | IC50 ([1]; 48 hr drug exposure): 148 nM; ROS production in HT-29 cells ([2]; treatment for 24 hr with 10 nM): significantly decreased; potency as inhibitor of NOX4 compared with DPI (NOX4): more potent; IC50 ([3]; read-out: IC50 (±SE) clonogenic survival, 2 hrs drug exposure, 2 hrs exposure): ~7000 nM; IC50 ([3]; read-out: IC50 (±SE) clonogenic survival, 6 hrs drug exposure, 6 hrs exposure): 1300 ± 300 nM
O=[N+]([O-])c1cccc2c1-c1c(cccc1[N+](=O)[O-])[I+]2.[Br-] [Compound 49, 1,9-dinitrodibenzo[b,d]iodolium bromide] | – | – | much higher | – | much higher | – | much higher | – | submicromolar | – | – | Growth inhibition of NOX1-containing colon cancer cells versus the other analogs ([1]; even at higher concentrations): much less; IC50 (NOX1/A1/O1; IC50 ± SE, NOX1/A1/O1 HEK 293, 3-5 independent experiments): 1020 ± 361 nM; IC50 (NOX2; IC50 ± SE, NOX2 HL-60, 3-5 independent experiments): 1470 ± 308 nM; IC50 (NOX4; IC50 ± SE, NOX4 HEK293, 3-5 independent experiments): 5530 ± 2680 nM; IC50 (NOX5; IC50 ± SE, NOX5 UACC-257, 3-5 independent experiments): 229 ± 123 nM; IC50 (DUOX2/A2): 773 ± 362 nM; inhibition of DUOX2, as worded in text (DUOX2/A2): submicromolar; potency for inhibition of DUOX2 compared with parent compound (DPI) (DUOX2/A2): at least a log more potent
[Cl-].c1csc([I+]c2cccs2)c1 [Compound 1, di-2-thienyliodonium chloride, reference compound] | – | 3410 ± 1600 | – | 1500 ± 1110 | – | 32300 ± 13800 | – | 3780 ± 2140 | – | – | 113000 ± 92300 | IC50 clonogenic survival, 2 hrs drug exposure (result in words) ([3]; 2 hrs exposure): No Inhibition
O=S(=O)([O-])C(F)(F)F.c1csc([I+]c2cccs2)c1 [Compound 3, di-2-thienyliodonium triflate] | – | 2220 ± 1210 | – | 1490 ± 646 | – | 29700 ± 41500 | – | 1200 ± 1120 | – | – | – | IC50 clonogenic survival, 2 hrs drug exposure (result in words) ([3]; 2 hrs exposure): No Inhibition; IC50 ([3]; Homo sapiens, HT-29, read-out: IC50 (±SE) clonogenic survival, 6 hrs drug exposure, 6 hrs exposure): 91200 ± 58800 nM; potency compared with parent molecule (DTI) [5]: more potent than its parent molecule
Brc1ccc2c(c1)[I+]c1cc(Br)ccc1-2.[Br-] [Compound 16, Dibenziodolium, 3,7-dibromo-, bromide] | 50 | 70 ± 57 | low nM | 127 ± 20 | low nM | 161 ± 153 | low nM | 44 ± 21 | low nM | 4140 ± 1720 | 536 ± 635 | ROS production in HT-29 cells ([2]; treatment for 24 hr with 10 nM): significantly decreased; potency as inhibitor of NOX1 compared with DPI (NOX1/A1/O1): more potent; exposure required to inhibit growth / cell reproduction [3]: intermediate; IC50 [3, 11]: 1200 ± 1100 nM; IC50 [3, 13]: < 10 nM; G1 (%) ([4]; 250 nM): 64.5%; G2 (%) ([4]; 250 nM): 7.9%; S phase (%) ([4]; 250 nM): 28.1%; G1 (%) ([4]; 500 nM): 57.2%; G2 (%) ([4]; 500 nM): 6.5%; S phase (%) ([4]; 500 nM): 36.2%
CN(C)Cc1ccc2c(c1)[I+]c1cc(CN(C)C)ccc1-2.[I-] [Compound 24, Dibenziodolium, 3,7-bis[(dimethylamino)methyl]-, iodide] | 87 | 2520 ± 2410 | – | 4380 ± 999 | – | 35400 ± 42700 | – | 2090 ± 903 | – | – | – | inhibition of ROS production ([2]; HT-29 human colon cancer cells): no significant inhibition; inhibition of NOX1 expression (NOX1 mRNA expression): no significant inhibition
